Counter-ions that a name gives are not always drawn.
target: T1, Human ATX protein (Homo sapiens, UniProt Q13822); experiment: ATX biochemical assay (FRET, FS-3 substrate); conditions: FRET assay, FS-3 2 μM, ATX 1.0 μg/mL, 30 minutes preincubation, 2 hours reaction at room temperature; read-out: IC50
T1 construct: made in house
In short: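 In-house human ATX (1.0 μg/mL final) was preincubated with compound for 30 min at room temperature in Tris buffer pH 7.4 with 1 mg/mL fatty acid free-BSA. FS-3 substrate (2 μM final) was then hydrolysed for 2 hours at room temperature, protected from light, and read as fluorescence at ex 485/em 538 nm.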

First: CN(C)C12CCC(C(=O)N3CCc4c(C(F)(F)F)nn(Cc5ccc(F)cc5)c4C3)(CC1)CC2 [Example 10-9, (4-(dimethylamino)bicyclo[2.2.2]octan-1-yl)(1-(4-fluorobenzyl)-3-(trifluoromethyl)-4,5-dihydro-1H-pyrazolo[3,4-c]pyridin-6(7H)-yl)methanone trifluoroacetate salt TFA salt]
Second: CN1CCCC(CC(=O)N2CCc3c(C(F)(F)F)nn(Cc4ccc(F)cc4)c3C2)C1 (stereo not shown) [Example 11-1, 1-(1-(4-Fluorobenzyl)-3-(trifluoromethyl)-4,5-dihydro-1H-pyrazolo[3,4-c]pyridin-6(7H)-yl)-2-(1-methylpiperidin-3-yl)ethanone formate]
The IC50 of the first is higher: 0.25 to 0.5 µM for the first, at most 0.1 µM for the second. The second is the more potent here.

`CN1CC(CC(=O)N2CCc3c(C(F)(F)F)nn(Cc4ccc(Cl)cc4F)c3C2)C[C@@H]1C(=O)O` (stereo partly drawn) [Example 10-10, (2R)-4-(2-(1-(4-chloro-2-fluorobenzyl)-3-(trifluoromethyl)-4,5-dihydro-1H-pyrazolo[3,4-c]pyridin-6(7H)-yl)-2-oxoethyl)-1-methylpyrrolidine-2-carboxylic acid TFA salt] and `CN1CC(CC(=O)N2CCc3c(C(F)(F)F)nn(Cc4ccc(Cl)cc4F)c3C2)C[C@H]1C(=O)O` (stereo partly drawn) [Example 10-11, (2S)-4-(2-(1-(4-Chloro-2-fluorobenzyl)-3-(trifluoromethyl)-4,5-dihydro-1H-pyrazolo[3,4-c]pyridin-6(7H)-yl)-2-oxoethyl)-1-methylpyrrolidine-2-carboxylic acid TFA salt] cannot be ordered by IC50: at most 0.1 µM for the first, at most 0.1 µM for the second.

`CC(C)N1CC(CC(=O)N2CCc3c(C(F)(F)F)nn(Cc4ccc(Cl)cc4F)c3C2)C[C@H]1C(=O)O` (stereo partly drawn) [Example 10-12, (2S)-4-(2-(1-(4-Chloro-2-fluorobenzyl)-3-(trifluoromethyl)-4,5-dihydro-1H-pyrazolo[3,4-c]pyridin-6(7H)-yl)-2-oxoethyl)-1-isopropylpyrrolidine-2-carboxylic acid TFA salt] and `CC(C)N1CCC(CC(=O)N2CCc3c(C(F)(F)F)nn(Cc4ccc(Cl)cc4F)c3C2)CC1` [Example 11-2, 1-(1-(4-Chloro-2-fluorobenzyl)-3-(trifluoromethyl)-4,5-dihydro-1H-pyrazolo[3,4-c]pyridin-6(7H)-yl)-2-(1-isopropylpiperidin-4-yl)ethanone HCl salt] cannot be ordered by IC50: at most 0.1 µM for the first, at most 0.1 µM for the second.

`CCN1CCC(CC(=O)N2CCc3c(C(F)(F)F)nn(Cc4ccc(Cl)cc4F)c3C2)CC1` [Example 11-3, 1-(1-(4-Chloro-2-fluorobenzyl)-3-(trifluoromethyl)-4,5-dihydro-1H-pyrazolo[3,4-c]pyridin-6(7H)-yl)-2-(1-ethylpiperidin-4-yl)ethanone HCl salt] and `CC1CCN(CC(=O)N2CCc3c(C(F)(F)F)nn(Cc4ccc(Cl)cc4F)c3C2)CC1` [Example 12-13, 1-(1-(4-Chloro-2-fluorobenzyl)-3-(trifluoromethyl)-4,5-dihydro-1H-pyrazolo[3,4-c]pyridin-6(7H)-yl)-2-(4-methylpiperidin-1-yl)ethanone] cannot be ordered by IC50: at most 0.1 µM for the first, at most 0.1 µM for the second.

`CC(C)N1CCCC(CC(=O)N2CCc3c(C(F)(F)F)nn(Cc4ccc(F)cc4)c3C2)C1` (stereo not shown) [Example 11-4, 1-(1-(4-Fluorobenzyl)-3-(trifluoromethyl)-4,5-dihydro-1H-pyrazolo[3,4-c]pyridin-6(7H)-yl)-2-(1-isopropylpiperidin-3-yl)ethanone formate] and `CC1CCN(CC(=O)N2CCc3c(C(F)(F)F)nn(Cc4ccc(F)cc4)c3C2)CC1` [Example 12-14, 1-(1-(4-Fluorobenzyl)-3-(trifluoromethyl)-4,5-dihydro-1H-pyrazolo[3,4-c]pyridin-6(7H)-yl)-2-(4-methylpiperidin-1-yl)ethanone] cannot be ordered by IC50: at most 0.1 µM for the first, at most 0.1 µM for the second.

`COC(=O)C1CCN(CC(=O)N2CCc3c(C(F)(F)F)nn(Cc4ccc(F)cc4)c3C2)CC1` [Example 12-1, Methyl 1-(2-(1-(4-fluorobenzyl)-3-(trifluoromethyl)-4,5-dihydro-1H-pyrazolo[3,4-c]pyridin-6(7H)-yl)-2-oxoethyl)piperidine-4-carboxylate] and `COC(=O)C1CCN(CC(=O)N2CCc3c(C(F)(F)F)nn(Cc4ccc(F)cc4)c3C2)C1` (stereo not shown) [Example 12-7, Methyl 1-(2-(1-(4-fluorobenzyl)-3-(trifluoromethyl)-4,5-dihydro-1H-pyrazolo[3,4-c]pyridin-6(7H)-yl)-2-oxoethyl)pyrrolidine-3-carboxylate] cannot be ordered by IC50: at most 0.1 µM for the first, at most 0.1 µM for the second.

`O=C(CN1CCCCC1)N1CCc2c(C(F)(F)F)nn(Cc3ccc(Cl)cc3F)c2C1` [Example 12-2, 1-(1-(4-Chloro-2-fluorobenzyl)-3-(trifluoromethyl)-4,5-dihydro-1H-pyrazolo[3,4-c]pyridin-6(7H)-yl)-2-(piperidin-1-yl)ethanone] and `CCOC(=O)C1CCCN(CC(=O)N2CCc3c(C(F)(F)F)nn(Cc4ccc(Cl)cc4F)c3C2)CC1` (stereo not shown) [Example 12-17, TFA salt] cannot be ordered by IC50: at most 0.1 µM for the first, at most 0.1 µM for the second.

`CCOC(=O)C1CCCN(CC(=O)N2CCc3c(C(F)(F)F)nn(Cc4ccc(Cl)cc4F)c3C2)C1` (stereo not shown) [Example 12-3, Ethyl 1-(2-(1-(4-chloro-2-fluorobenzyl)-3-(trifluoromethyl)-4,5-dihydro-1H-pyrazolo[3,4-c]pyridin-6(7H)-yl)-2-oxoethyl)piperidine-3-carboxylate] and `CCOC(=O)C1CCCN(CC(=O)N2CCc3c(C(F)(F)F)nn(Cc4ccc(F)cc4)c3C2)C1` (stereo not shown) [Example 12-5, Ethyl 1-(2-(1-(4-fluorobenzyl)-3-(trifluoromethyl)-4,5-dihydro-1H-pyrazolo[3,4-c]pyridin-6(7H)-yl)-2-oxoethyl)piperidine-3-carboxylate] cannot be ordered by IC50: at most 0.1 µM for the first, at most 0.1 µM for the second.

`CCOC(=O)C1CCN(C(C)C(=O)N2CCc3c(C(F)(F)F)nn(Cc4ccc(Cl)cc4F)c3C2)CC1` (stereo not shown) [Example 12-6, Ethyl 1-(1-(1-(4-chloro-2-fluorobenzyl)-3-(trifluoromethyl)-4,5-dihydro-1H-pyrazolo[3,4-c]pyridin-6(7H)-yl)-1-oxopropan-2-yl)piperidine-4-carboxylate] and `CCOC(=O)C1CCCN(CC(=O)N2CCc3c(C(F)(F)F)nn(Cc4ccc(F)cc4)c3C2)CC1` (stereo not shown) [Example 12-16, Ethyl 1-(2-(1-(4-fluorobenzyl)-3-(trifluoromethyl)-4,5-dihydro-1H-pyrazolo[3,4-c]pyridin-6(7H)-yl)-2-oxoethyl)azepane-4-carboxylate TFA salt] cannot be ordered by IC50: at most 0.1 µM for the first, at most 0.1 µM for the second.

`O=C(CN1CCC(C(F)(F)F)CC1)N1CCc2c(C(F)(F)F)nn(Cc3ccc(Cl)cc3F)c2C1` [Example 12-8, 1-(1-(4-Chloro-2-fluorobenzyl)-3-(trifluoromethyl)-4,5-dihydro-1H-pyrazolo[3,4-c]pyridin-6(7H)-yl)-2-(4-(trifluoromethyl)piperidin-1-yl)ethanone] and `O=C(CN1CCC(C(F)(F)F)CC1)N1CCc2c(C(F)(F)F)nn(Cc3ccc(F)cc3)c2C1` [Example 12-15, 1-(1-(4-Fluorobenzyl)-3-(trifluoromethyl)-4,5-dihydro-1H-pyrazolo[3,4-c]pyridin-6(7H)-yl)-2-(4-(trifluoromethyl)piperidin-1-yl)ethanone] cannot be ordered by IC50: at most 0.1 µM for the first, at most 0.1 µM for the second.

Compared with `CCOC(=O)CCNCC(=O)N1CCc2c(C(F)(F)F)nn(Cc3ccc(F)cc3)c2C1` [Example 12-9, Ethyl 3-(2-(1-(4-fluorobenzyl)-3-(trifluoromethyl)-4,5-dihydro-1H-pyrazolo[3,4-c]pyridin-6(7H)-yl)-2-oxoethylamino)propanoate], `COC(=O)CC1CN(CC(=O)N2CCc3c(C(F)(F)F)nn(Cc4ccc(F)cc4)c3C2)C1` [Example 12-19, Methyl 2-(1-(2-(1-(4-fluorobenzyl)-3-(trifluoromethyl)-4,5-dihydro-1H-pyrazolo[3,4-c]pyridin-6(7H)-yl)-2-oxoethyl)azetidin-3-yl)acetate TFA salt] is lower in IC50: over 10 µM for the first, at most 0.1 µM for the second.

`N#CC1CCN(CC(=O)N2CCc3c(C(F)(F)F)nn(Cc4ccc(F)cc4)c3C2)CC1` [Example 12-10, 1-(2-(1-(4-Fluorobenzyl)-3-(trifluoromethyl)-4,5-dihydro-1H-pyrazolo[3,4-c]pyridin-6(7H)-yl)-2-oxoethyl)piperidine-4-carbonitrile TFA salt] and `N#CC1CCN(CC(=O)N2CCc3c(C(F)(F)F)nn(Cc4ccc(F)cc4)c3C2)C1` (stereo not shown) [Example 12-11, 1-(2-(1-(4-Fluorobenzyl)-3-(trifluoromethyl)-4,5-dihydro-1H-pyrazolo[3,4-c]pyridin-6(7H)-yl)-2-oxoethyl)pyrrolidine-3-carbonitrile TFA salt] cannot be ordered by IC50: at most 0.1 µM for the first, at most 0.1 µM for the second.

`N#CC1CN(CC(=O)N2CCc3c(C(F)(F)F)nn(Cc4ccc(F)cc4)c3C2)C1` [Example 12-12, 1-(2-(1-(4-Fluorobenzyl)-3-(trifluoromethyl)-4,5-dihydro-1H-pyrazolo[3,4-c]pyridin-6(7H)-yl)-2-oxoethyl)azetidine-3-carbonitrile TFA salt] and `O=C(O)C1CCN(CC(=O)N2CCc3c(C(F)(F)F)nn(Cc4ccc(F)cc4)c3C2)CC1` [Example 13-1, 1-(2-(1-(4-Fluorobenzyl)-3-(trifluoromethyl)-4,5-dihydro-1H-pyrazolo[3,4-c]pyridin-6(7H)-yl)-2-oxoethyl)piperidine-4-carboxylic acid] cannot be ordered by IC50: at most 0.1 µM for the first, at most 0.1 µM for the second.

same assay, conditions: IC50, FRET assay, FS-3 2 μM, ATX 1.0 μg/mL, 30 minutes preincubation, 2 hours reaction at room temperature

`COC(=O)C1CC2CCC(C1)N2CC(=O)N1CCc2c(C(F)(F)F)nn(Cc3ccc(Cl)cc3F)c2C1` (stereo not shown) [Example 12-4, Methyl 8-(2-(1-(4-chloro-2-fluorobenzyl)-3-(trifluoromethyl)-4,5-dihydro-1H-pyrazolo[3,4-c]pyridin-6(7H)-yl)-2-oxoethyl)-8-azabicyclo[3.2.1]octane-3-carboxylate] and `COC(=O)C1CC2COCC(C1)N2CC(=O)N1CCc2c(C(F)(F)F)nn(Cc3ccc(F)cc3)c2C1` (stereo not shown) [Example 12-18, Methyl 9-(2-(1-(4-fluorobenzyl)-3-(trifluoromethyl)-4,5-dihydro-1H-pyrazolo[3,4-c]pyridin-6(7H)-yl)-2-oxoethyl)-3-oxa-9-azabicyclo[3.3.1]nonane-7-carboxylate] cannot be ordered by IC50: at most 0.1 µM for the first, at most 0.1 µM for the second.
